Results as given in patent publication EP4559919A1, “TRICYCLIC-CONTAINING MACROCYCLIC COMPOUND AND USE THEREOF” (Medshine Discovery Inc., priority 2022, dated 2024).
pIC50: −log10 of the molar value.

How the values were obtained:
ALK(G1202R/L1196M) [1] = target: T1, ALK(G1202R/L1196M) (Homo sapiens, UniProt Q9UM73, G1202R/L1196M); assay: In vitro kinase inhibitory activity assay, Experimental method 1 (ADP-Glo); type: biochemical; details: final ATP 50 µM, read-out: Kinase half maximal inhibitory concentration IC50 ALK^G1202R/L1196M
T1 construct: purchased Carna
Description: (§1) The kinase inhibitory activity assays of the compounds against ALK, ALK^L1196M, ALK^G1202R, ALK^G1202R/L1196M, ROS1, and TRKB were conducted at Wuhan Heyan Biotechnology Co., Ltd. or Hefei PreceDo Biotechnology Co., Ltd.
(§2) Experimental materials: ALK Active, ALK(L1196M) Active, ALK(G1202R) Active, and ALK(G1202R/L1196M) Active were purchased from Carna; SRC Substrate was purchased from SignalChem; IGF1R tide was purchased from SignalChem; ADP-Glo Kinase Assay was purchased from Promega; Kinase assay buffer III was purchased from SignalChem; and Nivo multimode plate reader (PerkinElmer).
(§3) Each concentration of the compounds was further diluted 20-fold using 1X kinase buffer to prepare compound working solutions containing 5% DMSO. 1 µL of each concentration gradient working solution was added to a microplate, with duplicate wells set for each concentration. 2 µL of ALK enzyme (15 ng per well) and 2 µL of a mixture of substrate and ATP (25 µM ATP, 0.5 µg/µL SRC Substrate) were added to the microplate. […] The reaction system was placed at 25°C for 1 hour. After the reaction, 5 µL of ADP-Glo reagent was added to each well and reacted at 25°C for another 40 minutes. After the reaction, 10 µL of kinase detection reagent was added to each well and reacted at 25°C for 30 minutes. Chemiluminescence was then measured using the PerkinElmer Nivo multimode plate reader with an integration time of 0.5 seconds.
ALK (G1202R/L1196M) kinase inhibition assay method: The preparation method for the working solution of the test compound was the same as for the ALK kinase. […] The subsequent steps were the same as for ALK kinase.
(§4) The IC50 value could then be derived by performing a curve fit using a four-parameter logistic model (obtained using the "log(inhibitor) vs. response -- Variable slope" mode in GraphPad Prism).

TRKB [2] = target: T2, TRKB (Homo sapiens, UniProt Q16620); assay: as above; type: biochemical; details: read-out: Kinase half maximal inhibitory concentration IC50 TRKB
T2 construct: purchased Carna
Description: as §1, §2, §3
TRKB kinase inhibition assay method: The preparation method for the working solution of the test compound was the same as for the ALK kinase. 2 µL of TRKB (0.5 ng per well) and 4 µL of a mixture of substrate and ATP (5 µM ATP, 0.5 µM SRC Substrate) were added to the microplate. […] The subsequent steps were the same as for ALK kinase.
as §4

ALK(G1202R) = target: T3, ALK(G1202R) (Homo sapiens, UniProt Q9UM73, G1202R); assay: as above; type: biochemical; details: final ATP 50 µM, read-out: Kinase half maximal inhibitory concentration IC50 ALK^G1202R
T3 construct: purchased Carna
Description: as §1, §2, §3
ALK (G1202R) kinase inhibition assay method: The preparation method for the working solution of the test compound was the same as for the ALK kinase. […] The subsequent steps were the same as for ALK kinase.
as §4

ROS1 = ROS1 (Homo sapiens, UniProt P08922); assay: as above; type: biochemical; details: read-out: Kinase half maximal inhibitory concentration IC50 ROS1
Description: as §1, §2
as §3, with “After the reaction, 10 µL of kinase detection reagent was added to each well and reacted at 25°C for 30 minutes.” left out, “seconds. […]” for “seconds.”

ALK(G1202R/L1196M) [3] = target: T1, ALK(G1202R/L1196M); assay: In vitro kinase inhibitory activity assay, Experimental method 2 (ADP-Glo); type: biochemical; details: Experimental method 2; ATP 5.0 µM, substrate IGF1; read-out: Kinase half maximal inhibitory concentration IC50 ALK^G1202R/L1196M
Description: as §1
(§5) Experimental materials: ALK (G1202R/L1196M) Active and TRKB were purchased from Carna; IGF1 was purchased from GenScript; PolyE4Y1 was purchased from SIGMA; ADP-Glo™ Reagent was purchased from Promega; ATP was purchased from Promega; Kinase Detection Reagent was purchased from Promega; microplate reader ( PerkinElmer).
Reaction system: ALK(G1202R/L1196M) reaction concentration 8.63 nM, ATP concentration 5.0 µM, substrate IGF1 concentration 0.2 µg/µL. ALK(G1202R/L1196M) kinase buffer was 40 mM Tris-HCl (pH 7.5) + 20 mM magnesium chloride + 0.1 mg/mL BSA + 50 µM DTT.
(§6) ALK(G1202R/L1196M) and TRKB detection method: 2 µL of kinase and 1 µL of compound were added to a 384-well plate; 2 µL of substrate/ATP mixture was added and incubated at room temperature in the dark for 60 minutes; 5 µL of ADP-Glo™ reagent was added and incubated at room temperature for 40 minutes; 10 µL of kinase detection reagent was added and incubated at room temperature for 30 minutes; the plate was read on a microplate reader, and luminescence was recorded (integration time set to 0.5 seconds).
as §4

TRKB [4] = target: T2, TRKB; assay: as above; type: biochemical; details: Experimental method 2; ATP 5.0 µM, substrate PolyE4Y1; read-out: Kinase half maximal inhibitory concentration IC50 TRKB
Description: as §1, §5
TRKB reaction concentration 4.47 nM, ATP concentration 5.0 µM, substrate PolyE4Y1 concentration 0.2 µg/µL. TRKB kinase buffer was 40 mM Tris-HCl (pH 7.5) + 20 mM magnesium chloride + 2.5 mM manganese chloride + 0.1mg/mL BSA+ 50 µM DTT.
as §6, §4

[5] = test system: Ba/F3-EML4-ALK-G1202R/L1196M; assay: Anti-proliferative activity test on Ba/F3 cell lines (CellTiter-Glo); type: cell-based; details: for pIC50: Ba/F3 EML4-ALK-G1202R-L1196M, 72 hours, read-out: Half maximal inhibitory concentration IC50 for cells Ba/F3-EML4-ALK-G1202R/L1196 M
Description: (§7) • (1) Cell culture: The cell lines were cultured in an incubator at 37°C with 5% CO2. Regular passaging was performed, and cells in the logarithmic growth phase were selected for plating; • (2) Preparation of compound storage plate: The test compounds were prepared into a 10 mM solution with DMSO (Stock Con.); The compounds were then prepared into a 1 mM solution with DMSO (Work Con.); 1 µL of the stock solution was mixed with 9 µL of DMSO to prepare a 10 µL work solution. • (3) Preparation of 1000× compound storage plate (tube): The compounds were 3-fold serially diluted from […] to the lowest concentration, for a total of 8 concentrations; • (4) Preparation of 20× compound working solution: 98 µL of cell culture medium was added to a flat-bottomed 96-well transparent drug plate. From the 1000× compound storage plate, 2 µL of the compound was pipetted into the cell culture medium in the 96-well transparent drug plate. In the solvent control, 2 µL of DMSO was added. After the compound or DMSO was added, the mixture was homogenized using a pipette. • (5) Cells were stained with trypan blue and viable cells were counted to ensure a cell viability of 90% or more. The cell concentration was adjusted to an appropriate concentration; • (6) 95 µL of cell suspension (2000 cells/well) was added to each well of the compound assay cell plate, and cell-free culture medium containing 0.1% DMSO was added to the Min control wells; • (7) Administration in the compound assay cell plate: 5 µL of 20× compound working solution was added to the cell culture plate, 5 µL of DMSO-cell culture medium mixture was added to the Max control wells, and the final concentration of DMSO was 0.1%; • (8) The culture plate was then incubated in an incubator at 37°C with 5% CO2 for 72 hours; • (9) The following operations were conducted in accordance with the instructions of the Promega CellTiter-Glo Luminescent Cell Viability Assay Kit (Promega-G7573): CellTiter-Glo buffer was thawed and brought to room temperature; CellTiter-Glo substrate was brought to room temperature; CellTiter-Glo buffer was added to a bottle of CellTiter-Glo substrate to dissolve the substrate, thereby preparing CellTiter-Glo working solution; The mixture was slowly vortexed and shaken to be fully dissolved; The cell culture plate was removed and allowed to equilibrate to room temperature for 10 minutes; 50 µL (equal to half the volume of cell culture medium in each well) of CellTiter-Glo working solution was added to each well; The culture plate was shaken on an orbital shaker for 2 minutes to induce cell lysis; The plate was then left at room temperature for 10 minutes to stabilize the luminescent signal; The luminescent signal was detected using a SpectraMax Paradigm plate reader; Cell viability assay was conducted using CellTiter-Glo luminescence method.
(§8) Data analysis: The corresponding […] value (RLU) for each well was obtained from SpectraMax Paradigm readings. […] The inhibition rates corresponding to compounds at different concentrations were calculated in Excel, and the inhibition rate curves were plotted using GraphPad Prism software to calculate relevant parameters, including the maximum and minimum inhibition rates of the cells and the IC50 value.

Ba/F3-TEL-TRKB = assay: as above; type: cell-based; details: Mus musculus, BaF3; 72 hours; read-out: Half maximal inhibitory concentration IC50 for cells Ba/F3-TEL-TRKB
Description: as §7, §8

[6] = In vivo pharmacokinetic testing in mice; design: species or system male CD-1 mice; details: mouse, IV, 0.5 mg/kg, plasma
Description: The objective was to study the pharmacokinetic behavior of the compounds of the present disclosure in mice, using male CD-1 mice aged 7 to 9 weeks as test animals. The concentrations of the compounds in plasma at different time points after a single intravenous injection (IV) and oral gavage (PO) administration of the compound were determined using LC/MS/MS.
Two groups of healthy mice (fasted) were administered the compounds via intravenous injection (IV) and oral gavage (PO), with 2 mice in each group.
The test compounds were mixed with the solvent, vortexed, and sonicated to prepare a clear solution with a concentration of 0.5 mg/mL and a pH of 3.3-3.6. The intravenous injection dose for the mice was 1.0 mg/kg. […] The test compounds were mixed with the solvent, vortexed, and sonicated to prepare a homogeneous suspension with particles at a concentration of 0.5 mg/mL and a pH of 6.8-7.0. The oral gavage dose for the mice was 5.0 mg/kg.
The test compound was mixed with the solvent, vortexed, and sonicated to prepare a clear solution with a concentration of 1.0 mg/mL. The intravenous injection dose for the mice was 1.0 mg/kg. […] The test compound was mixed with the solvent, vortexed, and sonicated to prepare a homogeneous suspension with particles at a concentration of 0.5 mg/mL. The oral gavage dose for the mice was 5.0 mg/kg.
The test compounds were mixed with the solvent, vortexed, and sonicated to prepare a clear solution with a concentration of 0.1 mg/mL. The intravenous injection dose for the mice was 0.5 mg/kg. […] The test compound was mixed with the solvent, vortexed, and sonicated to prepare a homogeneous suspension with particles at a concentration of 0.5 mg/mL and a pH of 7.08. The oral gavage dose for the mice was 5.0 mg/kg. After administration, the whole blood was collected at the time points of 0.083 hours, 0.25 hours, 0.5 hours, 1.0 hour, 2.0 hours, 4.0 hours, 8.0 hours, 12.0 hours, and 24.0 hours. Plasma was prepared from the whole blood and analyzed for drug concentration by LC-MS/MS. The pharmacokinetic parameters were calculated using Phoenix WinNonlin 6.3.

CYP2C9 = target: T4, CYP2C9 (Homo sapiens, UniProt P11712); assay: Cytochrome P450 isozyme inhibitory activity test (human liver microsomes); type: in vitro ADME; details: human liver microsomes 0.1 mg/mL; probe substrate Diclofenac
T4 construct: Mixed human liver microsomes (HLM) purchased from Corning Inc; tissue Corning Inc; host or cells: pooled human liver microsomes
Description: To test the inhibitory activity of the compounds of the present disclosure on different subtypes of human liver microsomal cytochrome P450 isozymes.
Mixed human liver microsomes (HLM) purchased from Corning Inc. (Steuben, New York, USA); Diclofenac as the probe substrate (10 µM); Sulfaphenazole as the positive control inhibitor; 4'-Hydroxydiclofenac as the metabolite
Preparation of test system working solution: Human liver microsomes (HLM): HLM stock solution at 20.0 mg/mL, working solution at 0.2 mg/mL, final concentration at 0.1 mg/mL; Potassium phosphate buffer: 100 mM; Cofactor working solution: Magnesium chloride, NADP (nicotinamide adenine dinucleotide phosphate), G6P (glucose-6-phosphate), G6PDH (glucose-6-phosphate dehydrogenase), and phosphate buffer or magnesium chloride, NADPH (reduced nicotinamide adenine dinucleotide phosphate) powder, and potassium phosphate buffer; prepared into cofactor working solution at appropriate ratios;
Stop solution: Isotope-labeled 4'-hydroxydiclofenac-d4 stock solution prepared in methanol, then prepared into stop solution using acetonitrile.
In the substrate-free control sample wells of the reaction plate, 100 µL of a mixture of human liver microsome and potassium phosphate buffer was added. At the zero-time point sample wells, 98 µL of a mixture of the human liver microsome and potassium phosphate buffer was added. In the no-inhibitor control (NIC), test compound, and positive control inhibitor sample wells of the reaction plate, 100 µL of a mixture of the human liver microsome and substrate was added. From the dilution plate, 2 µL of blank solvent, test compound working solution (three parallels), and positive control inhibitor working solution (two parallels) were added to the reaction plate. The reaction plate was preheated at 37.0°C for 10 minutes. […] The concentration of specific metabolites in the samples was detected using the liquid chromatography-tandem mass spectrometry (LC-MS/MS) method. […] The IC50 values were calculated using a three-parameter or four-parameter inverse log equation.

CYP3A4-M = target: T5, CYP3A4-M (Homo sapiens, UniProt P08684); assay: as above; type: in vitro ADME; details: human liver microsomes 0.1 mg/mL
T5 construct: Mixed human liver microsomes (HLM) purchased from Corning Inc; tissue Corning Inc; host or cells: pooled human liver microsomes
T5 sequence (P08684 whole entry): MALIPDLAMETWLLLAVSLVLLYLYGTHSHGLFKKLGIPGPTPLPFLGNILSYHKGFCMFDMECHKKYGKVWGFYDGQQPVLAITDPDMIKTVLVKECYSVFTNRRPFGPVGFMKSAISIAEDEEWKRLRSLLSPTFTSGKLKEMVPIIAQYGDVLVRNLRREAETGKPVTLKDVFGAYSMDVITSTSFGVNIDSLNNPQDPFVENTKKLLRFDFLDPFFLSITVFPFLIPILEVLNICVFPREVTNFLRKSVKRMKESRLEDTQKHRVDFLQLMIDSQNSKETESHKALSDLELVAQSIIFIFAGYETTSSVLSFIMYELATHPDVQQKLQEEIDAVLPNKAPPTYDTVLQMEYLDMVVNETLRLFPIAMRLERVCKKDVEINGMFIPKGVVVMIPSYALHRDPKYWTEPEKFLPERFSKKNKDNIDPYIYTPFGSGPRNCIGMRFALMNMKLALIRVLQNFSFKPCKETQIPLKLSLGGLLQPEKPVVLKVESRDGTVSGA

T2 sequence (Q16620 32-822): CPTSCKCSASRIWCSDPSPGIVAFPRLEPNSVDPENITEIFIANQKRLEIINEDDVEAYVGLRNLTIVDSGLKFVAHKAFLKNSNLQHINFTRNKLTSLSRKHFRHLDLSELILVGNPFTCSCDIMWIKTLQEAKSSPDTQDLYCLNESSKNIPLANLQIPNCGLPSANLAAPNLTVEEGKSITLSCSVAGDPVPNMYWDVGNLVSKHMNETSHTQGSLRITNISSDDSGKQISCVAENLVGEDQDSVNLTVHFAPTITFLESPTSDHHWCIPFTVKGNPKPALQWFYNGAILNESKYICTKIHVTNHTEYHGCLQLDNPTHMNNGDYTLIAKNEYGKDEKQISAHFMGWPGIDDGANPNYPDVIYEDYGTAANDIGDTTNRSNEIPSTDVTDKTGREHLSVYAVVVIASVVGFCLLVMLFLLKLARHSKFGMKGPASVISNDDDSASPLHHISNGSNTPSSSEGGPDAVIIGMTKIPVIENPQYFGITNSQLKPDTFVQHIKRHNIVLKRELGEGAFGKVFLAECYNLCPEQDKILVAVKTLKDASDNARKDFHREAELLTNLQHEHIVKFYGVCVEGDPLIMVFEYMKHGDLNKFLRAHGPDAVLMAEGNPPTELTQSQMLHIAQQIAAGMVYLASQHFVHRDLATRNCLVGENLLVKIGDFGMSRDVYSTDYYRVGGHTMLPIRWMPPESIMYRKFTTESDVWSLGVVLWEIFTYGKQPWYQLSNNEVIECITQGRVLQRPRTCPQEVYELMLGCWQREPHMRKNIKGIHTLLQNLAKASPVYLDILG
T1 sequence (Q9UM73 19-1620 L1196M/G1202R): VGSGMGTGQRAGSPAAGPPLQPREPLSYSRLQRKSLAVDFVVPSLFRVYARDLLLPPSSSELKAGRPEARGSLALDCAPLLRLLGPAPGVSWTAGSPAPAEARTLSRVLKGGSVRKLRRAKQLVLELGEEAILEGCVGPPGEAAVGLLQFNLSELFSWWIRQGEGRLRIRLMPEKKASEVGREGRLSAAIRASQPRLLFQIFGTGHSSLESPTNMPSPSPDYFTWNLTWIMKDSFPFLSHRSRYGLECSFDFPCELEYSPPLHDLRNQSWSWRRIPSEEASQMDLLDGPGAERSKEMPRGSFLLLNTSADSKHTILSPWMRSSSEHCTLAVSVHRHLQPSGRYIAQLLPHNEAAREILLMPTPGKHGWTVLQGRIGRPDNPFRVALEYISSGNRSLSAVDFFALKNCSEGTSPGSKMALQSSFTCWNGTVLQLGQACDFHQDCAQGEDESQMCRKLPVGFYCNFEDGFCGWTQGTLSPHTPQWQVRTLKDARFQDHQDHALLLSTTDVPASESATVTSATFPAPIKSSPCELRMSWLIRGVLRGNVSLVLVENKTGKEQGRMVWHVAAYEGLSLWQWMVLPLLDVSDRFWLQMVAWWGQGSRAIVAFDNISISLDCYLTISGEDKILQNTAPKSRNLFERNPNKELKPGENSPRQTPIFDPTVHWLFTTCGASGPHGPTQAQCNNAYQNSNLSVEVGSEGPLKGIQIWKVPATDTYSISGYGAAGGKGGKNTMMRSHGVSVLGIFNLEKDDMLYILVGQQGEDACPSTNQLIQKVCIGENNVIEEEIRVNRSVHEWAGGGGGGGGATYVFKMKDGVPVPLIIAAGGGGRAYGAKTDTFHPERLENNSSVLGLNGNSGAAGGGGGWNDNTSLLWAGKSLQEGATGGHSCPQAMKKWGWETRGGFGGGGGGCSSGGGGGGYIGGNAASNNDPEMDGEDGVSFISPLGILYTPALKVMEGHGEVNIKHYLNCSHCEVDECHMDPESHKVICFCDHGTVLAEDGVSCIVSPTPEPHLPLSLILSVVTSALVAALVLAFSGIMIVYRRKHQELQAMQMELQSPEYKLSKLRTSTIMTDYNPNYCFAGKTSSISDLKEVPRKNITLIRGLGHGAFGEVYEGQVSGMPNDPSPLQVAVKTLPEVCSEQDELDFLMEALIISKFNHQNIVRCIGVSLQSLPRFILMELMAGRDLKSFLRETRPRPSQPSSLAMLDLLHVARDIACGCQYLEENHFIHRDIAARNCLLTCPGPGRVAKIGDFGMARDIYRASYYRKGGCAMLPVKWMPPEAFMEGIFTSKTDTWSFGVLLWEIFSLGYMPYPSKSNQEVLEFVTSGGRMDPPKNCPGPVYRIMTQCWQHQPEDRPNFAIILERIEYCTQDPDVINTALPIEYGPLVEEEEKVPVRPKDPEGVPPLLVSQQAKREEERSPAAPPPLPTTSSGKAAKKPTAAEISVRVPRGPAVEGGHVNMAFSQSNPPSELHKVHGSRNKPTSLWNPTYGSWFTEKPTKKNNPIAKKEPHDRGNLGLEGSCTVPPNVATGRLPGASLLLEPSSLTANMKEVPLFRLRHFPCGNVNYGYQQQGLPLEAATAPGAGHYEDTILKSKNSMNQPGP
T4 sequence (P11712 whole entry): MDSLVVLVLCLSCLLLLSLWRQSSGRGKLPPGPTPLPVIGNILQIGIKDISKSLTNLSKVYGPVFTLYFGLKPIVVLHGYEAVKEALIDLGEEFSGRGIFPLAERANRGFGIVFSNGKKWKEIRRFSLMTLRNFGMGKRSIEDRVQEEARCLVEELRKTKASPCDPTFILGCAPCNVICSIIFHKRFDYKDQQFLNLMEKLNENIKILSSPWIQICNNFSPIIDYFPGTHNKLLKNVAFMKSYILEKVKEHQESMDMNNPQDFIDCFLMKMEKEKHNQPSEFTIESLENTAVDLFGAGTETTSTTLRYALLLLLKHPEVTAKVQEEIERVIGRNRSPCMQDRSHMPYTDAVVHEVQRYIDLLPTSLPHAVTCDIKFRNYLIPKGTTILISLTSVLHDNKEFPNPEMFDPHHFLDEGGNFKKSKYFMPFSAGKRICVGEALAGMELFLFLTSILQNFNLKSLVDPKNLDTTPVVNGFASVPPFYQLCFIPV
T3 sequence (Q9UM73 19-1620 G1202R): as the sequence (Q9UM73 19-1620 L1196M/G1202R) above, with M1178L counted along it

In the case of `CON=C1NC(C)(C)COc2ncc(F)cc2CN2c3nc4c1cnn4cc3OC[C@H]2C(F)F` [Compound 005], the pIC50 (ALK(G1202R/L1196M) [1]) was 8.28, the pIC50 (TRKB [2]) was 8.92 and the pIC50 (ALK(G1202R)) was 8.42. For the same molecule, the pIC50 (ROS1) was 9.22.
Work on `C#Cc1nn2cc3c4nc2c1C(=O)NC(C)(C)COc1ccc(F)cc1CN4[C@H](C(F)F)CO3` [Compound 019] yielded a pIC50 (ALK(G1202R/L1196M) [3]) of 9.05, a pIC50 (TRKB [4]) of 8.60 and a pIC50 [5] of 8.77. The “selectivity: inhibition against ALK-mutant cells versus TRKB phenotypic cells” value ([5]; stronger inhibition of ALK-mutant cells, relatively weaker of TRKB phenotypic cells) was “excellent selectivity”, the pIC50 (Ba/F3-TEL-TRKB) was 8.46 and the Vd ([6]; read-out: Apparent volume of distribution Vd) was 0.274 L/kg. The AUC(0-t) ([6]; read-out: Area under the curve AUC0-last) was 15.2 µM·h and the half-life ([6]; read-out: Half-life T1/2 (converted)) was 1.28 h.
In the case of `N#Cc1nn2cc3c4nc2c1C(=O)NC1(CCC1)COc1ccc(F)cc1CN4[C@H](C(F)F)CO3` [Compound 022], the pIC50 (ALK(G1202R/L1196M) [3]) was 8.11, the pIC50 (TRKB [4]) was 7.61 and the pIC50 [5] was 8.38. The pIC50 (Ba/F3-TEL-TRKB) was 8.64, the pIC50 (CYP2C9) was 6.34 and the pIC50 (CYP3A4-M) was under 4.30.
With `N#Cc1nn2cc3c4nc2c1C(=O)N[C@H]1C[C@H](C1)Oc1ccc(F)cc1CN4[C@H](C(F)F)CO3` [Compound 024] the pIC50 (ALK(G1202R/L1196M) [3]) was 8.64, the pIC50 (TRKB [4]) was 8.28 and the pIC50 [5] was 8.80. It also gave a pIC50 (Ba/F3-TEL-TRKB) of 9.10, a pIC50 (CYP2C9) of 5.67 and a pIC50 (CYP3A4-M) of under 4.30.
